Where two headings read alike, the source gives them in different places.
Key:
A549/ATCC = format: cell-based; conditions: NSCLC
SR = conditions: Leukemia
EKVX = conditions: NSCLC
HOP-62 = conditions: HOP-62, NSCLC
HCT-116 = conditions: HCT-116, Colon cancer
HT29 = conditions: HT29, Colon cancer
KM12 = conditions: KM12, Colon cancer
SW-620 = conditions: SW-620, Colon cancer
SF-295 = conditions: SF-295, CNS Cancer
SNB-75 = conditions: SNB-75, CNS Cancer
U251 = conditions: U251, CNS Cancer
LOX IMVI = conditions: Melanoma
SK-MEL-2 = conditions: SK-MEL-2, Melanoma
OVCAR-3 = conditions: OVCAR-3, Ovarian Cancer
OVCAR-4 = conditions: OVCAR-4, Ovarian Cancer
OVCAR-5 = conditions: OVCAR-5, Ovarian Cancer
OVCAR-8 = conditions: OVCAR-8, Ovarian Cancer
SK-OV-3 = conditions: SK-OV-3, Ovarian Cancer
786-0 = conditions: 786-0, Renal Cancer
ACHN = conditions: Renal Cancer
CAKI-1 = conditions: CAKI-1, Renal Cancer
TK-10 = conditions: TK-10, Renal Cancer
SN12C = conditions: Renal Cancer
DU-145 = conditions: DU-145, Prostate Cancer
NCI/ADR-RES = conditions: Breast Cancer
HS 578T = conditions: HS 578T, Breast Cancer
BT-549 = conditions: BT-549, Breast Cancer
Leukemia cell lines = conditions: Leukemia subpanel
Melanoma cell lines = conditions: Melanoma subpanel
[1] = system: Ovarian Cancer cell lines; conditions: Ovarian Cancer subpanel
[2] = system: Prostate Cancer cell lines; conditions: Prostate Cancer subpanel
[3] = read-out: GI50, values range inside panel

**Q.** For “Ethyl(Z)-4-(3-(4-chloro-2-((6-oxothiazolo[3,2-b][1,2,4]triazol-5(6H)-ylidene)methyl)phenyl)propanamido)benzoate [Compound 2i]”, which GI50 (A549/ATCC) is on record?
**A.** 19.5 µM

**Q.** What about the TGI (A549/ATCC) of the same substance?
**A.** 39.81 µM

**Q.** What about the CC50 (A549/ATCC; read-out: LC50 (the source's name)) of the same substance?
**A.** 79.4 µM

**Q.** What about the GI50 (SR) of the same substance?
**A.** 11 µM

**Q.** What about the TGI (SR) of the same substance?
**A.** 79.43 µM

**Q.** And the GI50 (EKVX)?
**A.** 12.9 µM

**Q.** And the TGI (EKVX)?
**A.** 25.70 µM

**Q.** What about the GI50 (HOP-62) of the same substance?
**A.** 13.2 µM

**Q.** What about the TGI (HOP-62) of the same substance?
**A.** 26.91 µM

**Q.** And the GI50 (HCT-116)?
**A.** 9.55 µM

**Q.** And the TGI (HCT-116)?
**A.** 23.44 µM

**Q.** What about the GI50 (HT29) of the same substance?
**A.** 12 µM

**Q.** What about the TGI (HT29) of the same substance?
**A.** 24.54 µM

**Q.** And the GI50 (KM12)?
**A.** 10.2 µM

**Q.** What about the TGI (KM12) of the same substance?
**A.** 23.98 µM

**Q.** And the GI50 (SW-620)?
**A.** 9.99 µM

**Q.** And the TGI (SW-620)?
**A.** 21.37 µM

**Q.** What about the GI50 (SF-295) of the same substance?
**A.** 10.5 µM

**Q.** What about the TGI (SF-295) of the same substance?
**A.** 23.44 µM

**Q.** And the GI50 (SNB-75)?
**A.** 13.2 µM

**Q.** What about the TGI (SNB-75) of the same substance?
**A.** 44.66 µM

**Q.** And the GI50 (U251)?
**A.** 6.6 µM

**Q.** And the TGI (U251)?
**A.** 19.05 µM

**Q.** And the GI50 (LOX IMVI)?
**A.** 5.62 µM

**Q.** What about the TGI (LOX IMVI) of the same substance?
**A.** 18.19 µM

**Q.** What about the GI50 (SK-MEL-2) of the same substance?
**A.** 14.5 µM

**Q.** What about the TGI (SK-MEL-2) of the same substance?
**A.** 33.11 µM

**Q.** And the GI50 (OVCAR-3)?
**A.** 13.8 µM

**Q.** And the TGI (OVCAR-3)?
**A.** 27.54 µM

**Q.** And the GI50 (OVCAR-4)?
**A.** 12.9 µM

**Q.** And the TGI (OVCAR-4)?
**A.** 38.90 µM

**Q.** And the GI50 (OVCAR-5)?
**A.** 15.5 µM

**Q.** What about the TGI (OVCAR-5) of the same substance?
**A.** 30.19 µM

**Q.** What about the GI50 (OVCAR-8) of the same substance?
**A.** 13.5 µM

**Q.** What about the TGI (OVCAR-8) of the same substance?
**A.** 33.88 µM

**Q.** And the GI50 (SK-OV-3)?
**A.** 19.9 µM

**Q.** And the TGI (SK-OV-3)?
**A.** 35.48 µM

**Q.** What about the GI50 (786-0) of the same substance?
**A.** 11.2 µM

**Q.** And the TGI (786-0)?
**A.** 23.98 µM

**Q.** What about the GI50 (ACHN) of the same substance?
**A.** 15.5 µM

**Q.** And the TGI (ACHN)?
**A.** 28.84 µM

**Q.** What about the GI50 (CAKI-1) of the same substance?
**A.** 10.5 µM

**Q.** And the TGI (CAKI-1)?
**A.** 23.98 µM

**Q.** And the GI50 (TK-10)?
**A.** 16.2 µM

**Q.** And the TGI (TK-10)?
**A.** 29.51 µM

**Q.** And the GI50 (SN12C)?
**A.** 12.6 µM

**Q.** What about the TGI (SN12C) of the same substance?
**A.** 25.11 µM

**Q.** What about the GI50 (DU-145) of the same substance?
**A.** 3.98 µM

**Q.** What about the TGI (DU-145) of the same substance?
**A.** 16.21 µM

**Q.** And the GI50 (NCI/ADR-RES)?
**A.** 21.9 µM

**Q.** And the TGI (NCI/ADR-RES)?
**A.** 67.60 µM

**Q.** What about the GI50 (HS 578T) of the same substance?
**A.** 3.54 µM

**Q.** And the TGI (HS 578T)?
**A.** 19.49 µM

**Q.** What about the GI50 (BT-549) of the same substance?
**A.** 3.8 µM

**Q.** And the TGI (BT-549)?
**A.** 15.84 µM

**Q.** What about the “TGI, panel MG_MID” value (Leukemia cell lines) of the same substance?
**A.** 51.55 µM

**Q.** What about the GI50 (Leukemia cell lines; read-out: GI50, panel MG_MID) of the same substance?
**A.** 11.3 µM

**Q.** And the GI50 (Leukemia cell lines; [3])?
**A.** 2.88 to 18.2 µM

**Q.** And the “TGI, panel MG_MID” value (Melanoma cell lines)?
**A.** 25.61 µM

**Q.** What about the “TGI, values range inside panel” value (Melanoma cell lines) of the same substance?
**A.** 18.19 to 33.11 µM

**Q.** What about the GI50 (Melanoma cell lines; read-out: GI50, panel MG_MID) of the same substance?
**A.** 11.8 µM

**Q.** What about the GI50 (Melanoma cell lines; [3]) of the same substance?
**A.** 5.62 to 14.8 µM

**Q.** And the CC50 (Melanoma cell lines; read-out: LC50, panel MG_MID)?
**A.** 55.4 µM

**Q.** What about the “TGI, panel MG_MID” value [1] of the same substance?
**A.** 31.15 µM

**Q.** What about the “TGI, values range inside panel” value [1] of the same substance?
**A.** 20.89 to 38.90 µM

**Q.** What about the GI50 ([1]; read-out: GI50, panel MG_MID) of the same substance?
**A.** 13.7 µM

**Q.** What about the “TGI, panel MG_MID” value [2] of the same substance?
**A.** 27.11 µM

**Q.** And the “TGI, values range inside panel” value [2]?
**A.** 16.21 to 38.01 µM

**Q.** And the GI50 ([2]; read-out: GI50, panel MG_MID)?
**A.** 7.6 µM

**Q.** And the GI50 [2, 3]?
**A.** 3.98 to 11.2 µM

Reference: paper PMC7926352, “Synthesis, Characterization and In Vitro Evaluation of Novel 5-Ene-thiazolo[3,2-b][1,2,4]triazole-6(5H)-ones as Possible Anticancer Agents” (Molecules, 2021)
